# Assay results reported in publication PMC8841457 (Clinical and Translational Science, 2021).
# Experiments:
# [1] = tested on: healthy recreational polydrug users; assay: Treatment-emergent adverse events; assay type: in vivo, human; conditions: pentazocine 0.5 mg/kg single i.v., n = 40; safety population
# [2] = tested on: healthy recreational polydrug users; assay: Pupillometry; assay type: in vivo, human; conditions: pentazocine 0.5 mg/kg i.v.; 8-h postdose period
# [3] = tested on: healthy recreational polydrug users; assay: Drug effect questionnaire; conditions: pentazocine 0.5 mg/kg and difelikefalin 5 and 15 mcg/kg i.v.; unipolar 0-100 VAS
# [4] = tested on: healthy recreational polydrug users; assay: Drug Liking VAS, human abuse potential study; assay type: in vivo; conditions: for Drug Liking VAS Emax LS mean difference: mixed-effect model
# [5] = tested on: healthy recreational polydrug users; assay: Global retrospective assessments at 8 h postdose; conditions: pentazocine 0.5 mg/kg i.v.
# [6] = Plasma pharmacokinetics after single i.v. dose; conditions: pentazocine 0.5 mg/kg single i.v., n = 40
# [7] = tested on: healthy recreational polydrug users; assay: Drug Similarity VAS at 8 h postdose; assay type: in vivo, human; conditions: pentazocine 0.5 mg/kg i.v.
smiles,measurement,setting,value
"CC(C)=CCN1CCC2(C)c3cc(O)ccc3CC1C2C (centres unmarked) [Pentazocine, pentazocine]","Any TEAE, subjects",[1],13 (32.5) n (%)
same,"Any serious TEAE, subjects",[1],0 n (%)
same,"Any severe TEAE, subjects",[1],0 n (%)
same,"Discontinuation due to TEAE, subjects",[1],1 (2.5) n (%)
same,"TEAE Abdominal pain upper, subjects",[1],0 n (%)
same,"TEAE Abdominal pain, subjects",[1],0 n (%)
same,"TEAE Chills, subjects",[1],2 (5.0) n (%)
same,"TEAE Constipation, subjects",[1],1 (2.5) n (%)
same,"TEAE Dizziness, subjects",[1],2 (5.0) n (%)
same,"TEAE Dyspepsia, subjects",[1],0 n (%)
same,"TEAE Groin pain, subjects",[1],0 n (%)
same,"TEAE Headache, subjects",[1],4 (10.0) n (%)
same,"TEAE Hot flush, subjects",[1],3 (7.5) n (%)
same,"TEAE Hypoesthesia, subjects",[1],1 (2.5) n (%)
same,"TEAE Nausea, subjects",[1],5 (12.5) n (%)
same,"TEAE Vomiting, subjects",[1],5 (12.5) n (%)
same,mean Emax reduction in pupil diameter from baseline (predose),[2],2.5 mm
same,"Bad Effects VAS Emax, scores overall",[3],< 20 points
same,Drug Liking VAS Emax LS mean difference,"[4]; pentazocine 0.5 mg/kg i.v. vs difelikefalin 5 mcg/kg i.v., completer set N = 39",21.95
same,Drug Liking VAS Emax LS mean difference,"[4]; pentazocine 0.5 mg/kg i.v. vs difelikefalin 15 mcg/kg i.v., completer set N = 39",20.92
same,Drug Liking VAS Emax LS mean difference,"[4]; pentazocine 0.5 mg/kg i.v. vs placebo, completer set N = 39",35.50
same,Mean Drug Liking VAS scores,"[4]; pentazocine 0.5 mg/kg i.v., over the first 3 h",> 60 points
same,"Drug Liking VAS Emax, median (min, max)","[4]; pentazocine 0.5 mg/kg single i.v., completer set N = 39","91.0 (49, 100)"
same,PVAQ median value,[5]; 8 h postdose,10.00 $
same,PVAQ mean value,"[5]; 8 h postdose, $0-$100 scale",9.60 $
same,"Mean 8-h score, Overall Drug Liking VAS","[5]; bipolar VAS, 50 neutral",greater than or equal to 69 points
same,"Mean 8-h score, Take Drug Again VAS","[5]; bipolar VAS, 50 neutral",greater than or equal to 69 points
same,Cmax,"[6]; human plasma, tandem MS, mean (SD)",296.0 (197.7) ng/ml
same,AUC0-t,[6]; mean (SD),487.4 (133.5) h*ng/ml
same,V d,[6]; mean (SD),4280 (1079.8) ml/kg
same,t 1/2,[6]; mean (SD),3.7 (1.2) h
same,Tmax,[6]; median [range],"0.1 [0.1, 0.8] h"
same,"Drug Similarity VAS, median, cannabinoids, hallucinogens, or stimulants",[7]; unipolar 0-100,≤ 2.0
same,"Drug Similarity VAS, median, benzodiazepines","[7]; unipolar 0-100, n=8",22.5
same,"Drug Similarity VAS, median, opioids","[7]; unipolar 0-100, n=38",65.0
